Marks after values point to notes of the source that are not given here.
Columns and labels:
[1] = Relative insecticidal activity (other assays, Table 2); settings: in vivo
PHA-L-stimulated PBMC = experiment: Proliferation of PHA-L-stimulated CFSE-labelled PBMC with or without exogenous IL-2; type: cell-based, human; settings: cyclotides 4 μM, CsA 5 μg/mL, 3 day culture; for proliferation with exogenous IL-2: IL-2 10 U/mL
Description: FIG. 13. Proliferation capacity of cyclotide-treated PBMC in the presence of exogenous IL-2. […] The cells were cultured without exogenous IL-2 (10 U/mL) (A and B) or in the presence of IL-2 (C and D). The CFSE-labelled cells were measured after a 3 day culture period by flow cytometry and representative data are presented in dot plots (A and C). Data are presented as mean and standard deviation (SD) of three independent experiments.
(§1) Following purification, PBMCs were equilibrated for 2 h at 37° C. […] This was followed by washing of each well with 100 μl PBS (centrifugation for 5 min, 1000 rpm, 20° C.) and re-suspending the cells in 100 μl medium for further assays.
Purified PBMCs (5*10^6 cells/ml) were incubated with […] of the fluorescent dye CFSE (5-carbofluoreszenein-ciacetat-succinylester) for 10 min at 37° C. The reaction was stopped using medium, cells were washed one time with medium by centrifugation (10 min, 300×g, 20° C.) and diluted with medium to 4*10^6 cells/ml.

[2] = Relative hemolytic activity (other assays, Table 2); type: cell-based; settings: some values given for the Ala mutant
[3] = tested on: IL-2 surface receptor CD25 on PBMC; experiment: IL-2 surface receptor CD25 expression, FACS; type: cell-based, human; settings: cyclotides 4 μM, CsA 5 μg/mL, PHA-L; stimulated untreated PBMCs = 100%
Description: PBMCs were isolated from blood samples of healthy adults that were provided by the transfusion center of the university hospital in Freiburg (Germany). […] The lymphocyte-enriched layer was transferred into a new vessel and washed three times with PBS and centrifuged again (10 min, twice with 300×g and last time with 800 rpm, 20° C.). For the following experiments, the cells were either stained with CFSE or diluted with medium to 4*10^6 cells/ml. Cells were counted in alight microscope using trypan blue staining and a hemocytometer.
as §1
Activated cells were transferred into a 96-well plate, centrifuged (5 min, 1000 rpm, 20° C.), washed one time with 100 μl FACS-buffer and stained with CD25 PE for 15 min at 4° C. Then cells were washed twice with FCS-buffer and resuspended in 100 μl FACS-buffer, transferred into FACS vials with a total volume of 250 μl and the expression of IL2 surface receptor CD25 was measured by FACS analysis using a FACSCalibur instrument (BD Biosciences).
Amongst other pathways, T-cell proliferation is determined by binding of the cytokine IL-2 to its cell surface receptor. Therefore the influence of cyclotides on the expression of the IL-2 receptor was tested. […] As control substance CsA was used. […] Treatment with V10A yields 114%±12.5, V10K yields 112%±16.3 and T8K yields 114%±17.3 CD25 surface expression after 24 h as compared to the control (FIG. 11B).

[4] = tested on: IFN-gamma production of activated PBMCs; experiment: IFN-gamma secretion of PBMC, ELISA-based FACS; type: cell-based, human; settings: 36 h past stimulation
Description: FIG. 14. IFN-γ secretion by cyclotide-treated PBMC. […] Untreated cells were used as control. Following 24 h or 36 h of cultivation, the cells were restimulated with PMA/Ionomycin for further 6 hour. The amount of IFN-γ was measured in the supernatant of cultured cells using an ELISA-based flow cytometric method. The data are presented as mean and standard deviation (SD) of three independent experiments.
Activated cells were resuspended in 50 μl of medium, transferred into a 96-well plate and treated with 10 μg/ml PHA-L. After incubation for 24 h cells were re-stimulated with PMA (50 ng/ml) und ionomycin (500 ng/ml) for 6 h. Next, the cells were transferred into Eppendorf tubes, centrifuged (5 min, 3000 RPM, 20° C.) und 50 μl of the supernatant was again transferred into new tubes and stored at −20° C. Production of cytokines was measured and quantified using the FlowCytomix™ kit according to manufacturer's instructions.
Therefore it is of interest to determine whether cyclotides only have anti-proliferative effects or also affect the effector function of T-lymphocytes, which would directly relate to changes in the IFN-gamma and TNF-alpha production. Therefore, the production of both cytokines of cyclotide-treated, activated PBMCs at an early time point after PBMC activation was tested.

nematodes = experiment: Relative nematocidal activity (other assays, Table 2); type: in vivo; settings: some cells print two values separated by a slash
[5] = tested on: activated human primary PBMC; experiment: Anti-proliferative CFSE cell division assay on anti-CD3/CD28-activated PBMC; settings: PBMCs, anti-CD3/28 mAbs, 72 h, cyclotides 1.8-14 μM; n.a. = not active
Description: Human peripheral blood mononuclear cells (PBMC) were isolated from the blood of healthy adult donors obtained from the Blood Transfusion Centre (University Medical Center, Freiburg, Germany). Venous blood was centrifuged on a LymphoPrep™ gradient (density: 1.077 g/cm^3, 20 min, 500×g, 20° C.; Progen, Heidelberg, Germany). Afterwards cells were washed twice with medium and cell viability and concentration was determined using the trypan blue exclusion test. PBMC were cultured in RPMI 1640 medium supplemented with 10% heat-inactivated fetal calf serum (PAA, Coelbe, Germany), 2 mM L-glutamine, 100 U/mL penicillin and […] (all from Invitrogen, Karlsruhe, Germany). The cells were cultured at 37° C. in a humidified incubator with a 5% CO2/95% air atmosphere. All experiments conducted on human material were approved by the Ethics committee of the University of Freiburg.
(§2) After cultivation, the cells were assessed in bioassays as described in the text.
For cell proliferation and cell division tracking analysis PBMC were harvested and washed twice in cold PBS and resuspended in PBS at a concentration of 5×10^6 cells/mL. Cells were incubated for 10 min at 37° C. with carboxyfluorescein diacetate succinimidyl ester (CFSE; 5 μM: Sigma-Aldrich, Taufkirchen, Germany). The staining reaction was stopped by washing twice with complete medium. Afterwards, the cell division progress was analysed using flow cytometric analysis.
The anti-proliferative effect of cyclotide mutants/variants was tested according to Example 5. […] Afterwards the cell proliferation was assessed by analysing cell division using flow cytometric-based histogram analysis.

[6] = tested on: degranulation marker LAMP-1 (CD107a) on activated PBMC; experiment: CD107a degranulation analysis; type: cell-based, human; settings: after 36 h; T20K 4 μM, CsA 5 μg/mL
Description: FIG. 16. Degranulation capacity of cyclotide-treated activated human PBMC. […] After 36 hour of cultivation the cells were restimulated with PMA/Ionomycin for 2.5 hours in the presence of a CD107a mAbs and GolgiStop reagent to determine the amount of degranulation by flow cytometry. Representative data are shown in dot plots (A) and in (B) data are presented as mean and standard deviation (SD) of three independent experiments.
Activated cells were grown for 36 h and then treated for re-stimulation with PMA (50 ng/ml) und ionomycin (500 ng/ml) and stained with CD107a PE. After 1 h the reaction was stopped with 2 μl Golgi-Stop (1:10) and incubated for 2.5 h at 37° C. The cells were transferred into a 96-well plate, centrifuged (5 min, 1000 RPM, 20° C.) and washed with 100 μl FACS-buffer. Afterwards, PBMCs were stained with CD8 PE-Cy5 for 15 min at 4° C. and following to wash cycles with FACS-buffer the cells were resuspended in 100 μl, transferred into FACS vials with a total volume of 250 μl and the degranulation was measured by FACS analysis.
After determining the influence of cyclotide treatment on the effector function of PBMCs on the basis of measuring IFN-gamma and TNF-alpha cytokine levels, it is of interest to determine an effect of cyclotides on the degranulation activity. Activation of cytotoxic CD8^+-lymphocytes lead to a release of cytolytic granules, which contain/express lysosomal-associated membrane protein 1 (CD107; LAMP-1). During degranulation, the granule vesicle membranes fuse with the membranes of activated CD8^+-lymphocytes and therefore LAMP-1 can be used as a marker protein for the cytotoxic activity of T-lymphocytes, which can be measured with FACS. After 36 h, 42%±21.4 of the CsA- and 49%±16.8 of the T20K-treated cells contain the degranulation marker LAMP-1 as compared to the control (FIG. 16). This can be interpreted in the way that CsA- and T20K-treated cells have reduced cytotoxicity.

[7] = tested on: activated human primary PBMC; settings: kalata B1 1.8-14 μM; CPT 30 μg/mL; melittin up to 1.6 μM
Description: as §2
The levels of apoptosis were determined using the annexin V-FITC apoptosis detection kit (eBioscience, Frankfurt, Germany) according to the manufacturer's instructions. After annexin V staining, propidium iodide solution (PI; eBioscience) was added and the cells were incubated in the dark, followed by a flow cytometric analysis to determine the amount of apoptosis and necrosis. CPT (30 μg/mL) and Triton-X 100 (0.5%) was used as positive controls for apoptosis and necrosis, respectively.
Cellular apoptotic and necrotic hallmarks were measured by using inter-nucleosomal DNA fragmentation (subG1^+ cells) assay and phosphatidylserine surface analysis through a single and combinatory annexin V and propidium iodide staining. This double staining process allowed the discrimination between viable (annexin^−/PI^−), apoptotic (annexin^+/PI^− and annexin^+/PI^+) or necrotic (annexin^−/PI^+) cells.

[8] = tested on: activated human primary PBMC; experiment: Flow cytometric forward-side-scatter analysis of viability and proliferation; type: cell-based; settings: extract 50-100 μg/mL; CPT 30 μg/mL
Description: After completion of the chemical analysis, different concentrations of the crude O. affinis cyclotide extract were tested for its anti-proliferative capacity on activated human primary PBMC (FIG. 2).

Which results are given for “kalata B1 mutant GLPVCGETCAGGTCNTPGCTCSWPVCTRN (SEQ ID No. 9) [Kalata V10A]”?
Relative activity in other assays (fold difference to kB1): insecticidal [1]: 1.1 fold difference to kB1; proliferation with exogenous IL-2 (PHA-L-stimulated PBMC): did not change the effect on proliferation; proliferation as compared to the control cells, without exogenous IL-2 (PHA-L-stimulated PBMC): no effect on the proliferation; Relative activity in other assays (fold difference to kB1): hemolytic [2]: 0.5 fold difference to kB1; CD25 expression after 48 h [3]: no significant change in receptorexpression; CD25 surface expression after 24 hours [3]: 114%±12.5; IFN-gamma production as compared to the control, 36 h [4]: did not induce significant changes in the level of IFN-gamma

For “kalata B1 mutant GLPVCGEKCVGGTCNTPGCTCSWPVCTRN (SEQ ID No. 8) [Kalata B1 T8K, Kalata T8K]”, which “Relative activity in other assays (fold difference to kB1): insecticidal” value [1] is on record?
The value was 0.2 fold difference to kB1.

What about the “Relative activity in other assays (fold difference to kB1): nematocidal” value (nematodes) of the same molecule?
Its value is <0.2 fold difference to kB1.

And the “proliferation with exogenous IL-2” value (PHA-L-stimulated PBMC)?
The value was “did not change the effect on proliferation”.

And the “proliferation as compared to the control cells, without exogenous IL-2” value (PHA-L-stimulated PBMC)?
The value was “no effect on the proliferation”.

What about the “CD25 expression after 48 h” value [3] of the same molecule?
The value was “no significant change in receptorexpression”.

What about the “CD25 surface expression after 24 hours” value [3] of the same molecule?
Its value is 114%±17.3.

And the “IC50 (μM) ± STDEV, inhibition of PBMC proliferation” value [5]?
Its value is “not active (n.a.)^b”.

And the “IFN-gamma production as compared to the control, 36 h” value [4]?
Its value is “did not induce significant changes in the level of IFN-gamma”.

What about the “cells containing the degranulation marker LAMP-1 as compared to the control” value [6] of the same molecule?
Its value is “no influence on the degranulation activity”.

Which results are given for CC[C@@]1(O)C(=O)OCc2c1cc1n(c2=O)Cc2cc3ccccc3nc2-1 [camptothecin, reference compound]?
induction of apoptosis [7]: significantly increased the fractions of these cells; dead cells / harm to cells (forward-side-scatter) [8]: induced a high proportion of dead cells

Source: US10357537B2, “Cyclotides as immunosuppressive agents” (priority 2011, dated 2019)
